Results published in patent US10265303B2, “Hyperphenylalaninemia and treatments thereof” (BERGEN TEKNOLOGIOVERFØRING AS, priority 2015, dated 2019).
Positions count from the first letter of the chain named.

Legend:
hPAH = biological target: T1, hPAH (Homo sapiens, UniProt P00439); assay: SPR screening and affinity determination on immobilized hPAH (Biacore T200); format: binding; conditions: for Kd: SPR, 25° C., compound 0-500 μM in 5% DMSO, affinities said to be overestimated, relative KD reliable, read-out: KD (μM) ± SER
T1 sequence (P00439 1-452): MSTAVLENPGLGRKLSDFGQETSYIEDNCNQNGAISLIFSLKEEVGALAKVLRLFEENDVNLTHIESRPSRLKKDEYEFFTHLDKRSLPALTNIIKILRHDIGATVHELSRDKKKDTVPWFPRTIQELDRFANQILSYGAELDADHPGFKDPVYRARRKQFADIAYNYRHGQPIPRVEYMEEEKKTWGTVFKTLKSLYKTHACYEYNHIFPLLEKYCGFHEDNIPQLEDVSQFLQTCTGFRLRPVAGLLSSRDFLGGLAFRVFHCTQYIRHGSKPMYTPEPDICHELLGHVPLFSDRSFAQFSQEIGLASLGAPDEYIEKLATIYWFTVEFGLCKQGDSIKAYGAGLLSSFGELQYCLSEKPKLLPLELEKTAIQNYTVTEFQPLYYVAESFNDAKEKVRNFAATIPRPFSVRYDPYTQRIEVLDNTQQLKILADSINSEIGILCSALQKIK
Description: For detailed determination of binding affinity of Compound 53 and derivatives (FIG. 4) SPR was performed on a Biacore T200 (GE Healthcare Life Sciences) at a temperature of 25° C. A hPAH solution at 0.08 μg/μl in a final volume of 200 μl in acetate buffer pH 5.0 was immobilized onto series S sensor chip CM5 by the standard amine coupling procedure at a flow rate of 30 μl/min and PBS-P+ buffer as running buffer aiming for RU 20000. After the coupling reaction the surface of the sensor chip was washed to eliminate unbound species with HBS buffer (0.01 M NaHepes pH 7.4, 0.15 M NaCI) at steady flow of 20 μl/min for 1 hour until the baseline drift was around 0.05 RU/s; note that an early injection of 40 μl dithiothreitol (DTT) 10 mM in HBS allowed for this reduced washing time.
For the screening, compounds were assayed at a concentration of 200 μM, with 5% DMSO in duplicates, including negative controls with 5% DMSO, positive controls, with 200 μM BH2 and solvent correction was also performed. For KD calculations, a compound concentration 0-500 μM (in 5% DMSO) were applied at otherwise analogous experimental design and analyses were performed using Biacore T200 Evaluation Software, version 2.0 (GE Healthcare Life Sciences).
All the responses from the compounds of the screening were subjected to blank subtraction (negative control 5% DMSO), molecular weight adjustment and solvent correction to account for differences in bulk response. Next a cut-off value for the screening was selected based on the response of the positive control of our experiments: RU BH2+3*SD (2.88+3*1.79=8.27). In this manner, from the 11 derivatives of Compound 53 tested (see FIG. 4) we weeded out those compounds with a lower response than 8.27, namely #53.2, #53.9 and #53.11.
In addition and for the rest of the compounds which continued our workflow, binding affinities were determined and the results are shown in the following table. The selected conditions to measure affinity are selected for high throughput measurements, but the affinities are overestimated though the relative KD for the different compounds are reliable.

human wild-type PAH [1] = biological target: T2, human wild-type PAH (Homo sapiens, UniProt P00439); assay: PAH activity in lysates of HEK293 cells permanently expressing human wild-type PAH; format: cell-based; conditions: 1% DMSO, 8 h; for PAH activity-cells (%): 0.04 mg/ml compound, Table 3; for increase of hPAH activity with respect to the control (FIG. 6): average compound concentration 144.9 μM
T2 construct: expressed in transfected cells
T2 sequence (P00439 1-452): T1 sequence (P00439 1-452)
Description: (§1) Human embryonic kidney cells (HEK293; Life Technologies™) permanently expressing WT-hPAH, prepared with the Flp-In system (Life Technologies™) were kindly provided by Per Knappskog, Haukeland University Hospital. About 1 million cells were grown in DMEM medium containing 4.5 g/l glucose, 10% (v/v) fetal calf serum, 0.25 mg/ml gentamycine, 2 mM L-glutamine and 50 μg/ml hygromycin B, and after 24 h medium was changed and the test compounds were added at a concentration of 0.02 mg/ml (1% DMSO). Eight hours later, the cells were harvested, and the pellets frozen in dry ice and stored at −80° C. […] To prepare the cell extracts, the frozen cell pellets were thawed in TBS (+protease inhibitor) buffer and cells were homogenized with 0.1% TX-100, incubated 15 minutes at 4° C. and extracts were clarified by centrifugation 20000 g for 15 min at 4° C. Protein concentrations were normalized using a Direct Detect Spectrometer (Merck Millipore).
The 7 selected compounds as well as the first generation pharmacological chaperones (Compounds III and IV) were further analyzed in the presence and absence of BH2 (200 μM), added as precursor of BH4, to account for additive effects. […]
as §1, with “and the compounds were” for “and the test compounds were”, “concentration of 0.04 mg/ml (1%” for “concentration of 0.02 mg/ml (1%”, “for 15 minutes at 4°” for “for 15 min at 4°”

[2] = biological target: dihydrofolate reductase (DHFR); conditions: read-out: IC50 (DHFR); ChEMBL database; cited from earlier work
I65T-PAH = biological target: T3, I65T-PAH (Homo sapiens, UniProt P00439, I65T); assay: PAH protein level and activity in HEK293 EBNA cells transiently expressing PKU mutant I65T; format: cell-based; conditions: 200 μM, 24 h, 1% DMSO
T3 construct: expressed in transfected cells; host or cells: HEK293 EBNA, transient, pcDNA3-PAH
T3 sequence (P00439 1-452 I65T): T1 sequence (P00439 1-452) with I65T
Description: (§2) Cell lysates were prepared as indicated above.

R261Q-PAH = biological target: T4, R261Q-PAH (Homo sapiens, UniProt P00439, R261Q); assay: PAH protein level and activity in HEK293 EBNA cells transiently expressing PKU mutant R261Q; format: cell-based; conditions: 200 μM, 24 h, 1% DMSO
T4 construct: expressed in transfected cells; host or cells: HEK293 EBNA, transient, pcDNA3-PAH
T4 sequence (P00439 1-452 R261Q): T1 sequence (P00439 1-452) with R261Q
Description: as §2

human wild-type PAH [3] = biological target: T2, human wild-type PAH; assay: PAH immunoreactive protein level (Western blot) in HEK293 cells permanently expressing human wild-type PAH; format: cell-based; conditions: BH2 200 μM alone, 8 h, 1% DMSO
Description: as §1
The 7 selected compounds as well as the first generation pharmacological chaperones (Compounds III and IV) were further analyzed in the presence and absence of BH2 (200 μM), added as precursor of BH4, to account for additive effects. A higher concentration of compound was also used 0.04 mg/ml (average of 116.7 μM) at otherwise same experimental conditions.

Structure (SMILES) | Kd (hPAH) [µM] | PAH activity-cells (%) (human wild-type PAH [1]) | also measured
Nc1ncc(Cc2ccc3c(c2)OCO3)c(N)n1 [c53.7] | 6.9 ± 4.9 | 119 ± 5 | –
COc1cc(Cc2ccc(N)nc2N)cc(OC)c1O [CHEMBL 128600] | – | – | IC50 [2]: 10000 µM
Nc1nc2c(c(=O)[nH]1)C(c1ccc3c(c1)OCO3)CC(=O)N2 (racemic) [c53.17] | 11 ± 3.7 | 206 ± 10 | –
Nc1nc(N)c(Cc2ccc3c(c2)OCO3)c(N)n1 [c53.14] | 24.7 ± 12.1 | 175 ± 23 | –
Nc1ccc2c(n1)NC(=O)CC2c1ccc2c(c1)OCCO2 (racemic) [c53.32] | 102 ± 11 | – | –
Nc1nc2c(c(=O)[nH]1)C(c1ccc3c(c1)OCO3)CC(=O)N2 (racemic) [c53.35] | 23.7 ± 5 | – | –
CCOc1ccc(Cc2cnc(S)nc2N)cc1 [c53.6] | 103 ± 48.8 | 120 ± 12 | –
CSc1nc2c(c(=O)[nH]1)C(c1ccc3c(c1)OCO3)CC(=O)N2 (racemic) [c53.26] | 62.1 ± 30.7 | 109 ± 5 | –
C[C@H](O)[C@H](O)C1=Nc2c(nc(N)[nH]c2=O)NC1 [BH2] | – | – | stimulating effect on PAH activity (human wild-type PAH [1]; BH2 200 μM alone): 21.7%; PAH activity, mutant I65T (I65T-PAH): increased; hPAH protein level, mutant I65T (I65T-PAH): increased; SPR screening response (blank-subtracted, MW-adjusted, solvent-corrected) (hPAH; 200 μM, 5% DMSO, duplicates, cut-off 8.27): 2.88 RU; PAH activity, mutant R261Q (R261Q-PAH): increased; hPAH protein level, mutant R261Q (R261Q-PAH): increased; stimulating effect on PAH protein (human wild-type PAH [3]): 24.8%

Second part, led by results:

Kd (hPAH) [µM] | PAH activity-cells (%) (human wild-type PAH [1]) | Structure (SMILES) | also measured
12.6 ± 6.4 | – | Nc1nc2c(c(=O)[nH]1)C(c1cccc3ccccc13)CC(=O)N2 (racemic) [c53.41] | –
23.2 ± 11.7 | 206 ± 5 | COc1cccc(C2CC(=O)Nc3nc(N)[nH]c(=O)c32)c1 (racemic) [c53.20] | –
37.2 ± 23.7 | 170 ± 17 | COc1ccc(C2CC(=O)Nc3nc(N)[nH]c(=O)c32)cc1 (racemic) [c53.19] | –
182 ± 32 | – | COc1ccc(C2CC(=O)Nc3nc(N)ccc32)c(OC)c1OC (racemic) [c53.33] | –
22.9 ± 2.7 | 155 ± 13 | Nc1nc2c(c(=O)[nH]1)C(c1ccc(Cl)cc1Cl)CC(=O)N2 (racemic) [c53.10] | increase of hPAH activity with respect to the control (FIG. 6) (human wild-type PAH [1]): around 40%
55.9 ± 6.7 | 125 ± 8 | COc1ccc(C2CC(=O)Nc3nc(N)ccc32)cc1O (racemic) [c53.31] | –
370 ± 228 | – | COc1cc(C(c2c[nH]c3ccccc23)c2c[nH]c3ccccc23)cc(OC)c1OC [c53.5] | –
30.1 ± 6.5 | 154 ± 16 | Nc1nc2c(c(=O)[nH]1)C(c1ccc(Cl)cc1)CC(=O)N2 (racemic) [c53.22] | –
191 ± 20 | 155 ± 7 | COc1cc(C2CC(=O)Nc3nc(N)ccc32)cc(Cl)c1OC (racemic) [c53.29] | –
76.3 ± 26.4 | 146 ± 10 | COc1ccc(C2CC(=O)Nc3nc(N)[nH]c(=O)c32)cc1OC (racemic) [c53.16] | –
104 ± 14 | 130 ± 8 | COc1ccc(Cc2cnc(N)nc2N)cc1OC [c53.1] | –
11.6 ± 1.6 | – | Nc1nc2c(c(=O)[nH]1)C(c1cccc(Cl)c1)CC(=O)N2 (racemic) [c53.40] | –
45.2 ± 9.1 | 165 ± 28 | COc1cc(Cc2ccc(N)nc2N)cc(OC)c1OC [c53.4] | increase of hPAH activity with respect to the control (FIG. 6) (human wild-type PAH [1]): around 40%
